The source of these data is patent US20250288589A1, “PYRIDOPYRIMIDINES AND METHODS OF THEIR USE” (Kineta, Inc., priority 2021, published 2025).

In the assay the target is T1, full-length human PIKFYVE (Homo sapiens, UniProt Q9Y2I7, L932S/Q1183K/Q995L/S1033A/S696N/T998S).
T1 construct: A full-length human PIKFYVE [1-2098(end) amino acids and S696N, L932S, Q995L, T998S, S1033A and Q1183K; purchased Carna Biosciences; host or cells: baculovirus expression system
T1 sequence (Q9Y2I7 whole entry S696N/L932S/Q995L/T998S/S1033A/Q1183K): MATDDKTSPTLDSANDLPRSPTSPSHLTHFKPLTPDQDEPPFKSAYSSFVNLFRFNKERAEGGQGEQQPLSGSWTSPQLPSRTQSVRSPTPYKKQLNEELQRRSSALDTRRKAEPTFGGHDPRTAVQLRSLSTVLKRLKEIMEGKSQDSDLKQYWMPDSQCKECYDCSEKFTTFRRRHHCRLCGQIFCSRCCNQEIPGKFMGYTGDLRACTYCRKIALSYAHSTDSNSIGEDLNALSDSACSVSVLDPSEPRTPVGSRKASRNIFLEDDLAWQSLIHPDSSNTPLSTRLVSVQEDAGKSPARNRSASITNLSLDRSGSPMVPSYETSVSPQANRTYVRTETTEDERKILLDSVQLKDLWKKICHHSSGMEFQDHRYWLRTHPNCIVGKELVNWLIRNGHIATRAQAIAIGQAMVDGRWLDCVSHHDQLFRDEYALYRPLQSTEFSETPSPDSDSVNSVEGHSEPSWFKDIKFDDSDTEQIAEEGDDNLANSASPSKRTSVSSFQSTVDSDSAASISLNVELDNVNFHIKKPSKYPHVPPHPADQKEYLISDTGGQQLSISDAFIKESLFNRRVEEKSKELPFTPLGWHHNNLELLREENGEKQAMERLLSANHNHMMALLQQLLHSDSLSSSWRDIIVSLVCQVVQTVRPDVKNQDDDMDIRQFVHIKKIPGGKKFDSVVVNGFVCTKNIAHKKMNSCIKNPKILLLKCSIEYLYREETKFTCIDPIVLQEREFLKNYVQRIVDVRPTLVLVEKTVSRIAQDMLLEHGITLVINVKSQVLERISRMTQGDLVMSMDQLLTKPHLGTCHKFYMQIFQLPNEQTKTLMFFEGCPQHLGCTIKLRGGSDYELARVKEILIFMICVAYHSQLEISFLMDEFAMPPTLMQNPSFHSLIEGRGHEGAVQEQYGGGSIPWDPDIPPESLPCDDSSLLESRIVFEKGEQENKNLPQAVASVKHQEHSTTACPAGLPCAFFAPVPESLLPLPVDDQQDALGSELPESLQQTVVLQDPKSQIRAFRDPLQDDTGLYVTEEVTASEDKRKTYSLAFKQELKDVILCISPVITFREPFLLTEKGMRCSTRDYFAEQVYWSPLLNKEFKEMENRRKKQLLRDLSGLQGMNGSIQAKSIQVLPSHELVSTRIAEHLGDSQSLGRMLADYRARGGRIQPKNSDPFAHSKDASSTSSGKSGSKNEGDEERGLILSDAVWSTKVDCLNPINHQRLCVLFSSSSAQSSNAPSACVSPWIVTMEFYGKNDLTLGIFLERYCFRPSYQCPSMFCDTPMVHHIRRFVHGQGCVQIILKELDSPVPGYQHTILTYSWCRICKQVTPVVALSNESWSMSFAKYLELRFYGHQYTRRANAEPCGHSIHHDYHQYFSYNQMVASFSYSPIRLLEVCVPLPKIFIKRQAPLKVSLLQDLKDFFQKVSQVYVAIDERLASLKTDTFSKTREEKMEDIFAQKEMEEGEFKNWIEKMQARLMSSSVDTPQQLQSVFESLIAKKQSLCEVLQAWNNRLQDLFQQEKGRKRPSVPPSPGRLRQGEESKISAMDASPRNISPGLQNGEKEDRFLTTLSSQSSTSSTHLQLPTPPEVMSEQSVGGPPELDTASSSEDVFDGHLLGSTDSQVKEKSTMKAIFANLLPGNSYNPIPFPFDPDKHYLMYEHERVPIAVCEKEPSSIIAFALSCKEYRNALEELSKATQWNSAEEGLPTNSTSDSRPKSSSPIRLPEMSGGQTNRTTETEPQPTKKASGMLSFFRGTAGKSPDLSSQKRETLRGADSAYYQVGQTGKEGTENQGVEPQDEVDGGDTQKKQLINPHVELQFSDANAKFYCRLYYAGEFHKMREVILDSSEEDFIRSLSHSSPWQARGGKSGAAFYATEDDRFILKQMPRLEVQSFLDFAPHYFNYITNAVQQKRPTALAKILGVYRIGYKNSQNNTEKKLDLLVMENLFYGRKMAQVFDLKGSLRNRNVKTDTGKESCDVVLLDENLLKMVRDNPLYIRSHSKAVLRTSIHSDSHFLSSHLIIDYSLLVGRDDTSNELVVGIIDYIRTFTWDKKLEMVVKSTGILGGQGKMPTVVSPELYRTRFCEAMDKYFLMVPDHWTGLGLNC
The assay can be described thus: PIKfyve biochemical assay (ADP-Glo Kinase assay, Carna Biosciences). The following applies: GST-PIKFYVE, 10 μM to 3 nM in duplicate, read-out: hPIKfyve IC50.
From the text: (§1) PIKfyve Biochemical Assay. The biochemical PIKFyve inhibition assays were run by Carna Biosciences according to proprietary methodology based on the Promega ADP-Glo™ Kinase assay. A full-length human PIKFYVE [1-2098(end) amino acids and S696N, L932S, Q995L, T998S, S1033A and Q1183K of the protein having the sequence set forth in NCBI Reference Sequence No. NP_055855.2] was expressed as N-terminal GST-fusion protein (265 kDa) using baculovirus expression system. GST-PIKFYVE was purified by using glutathione sepharose chromatography and used in an ADP-Glo™ Kinase assay (Promega). Reactions were set up by adding the test compound solution, substrate solution, ATP solution and kinase solution, each at 4× final concentrations. Reactions were prepared with assay buffer (50 mM MOPS, 1 mM DTT, pH7.2), mixed, and incubated in black 384 well polystyrene plates for 1 hour at room temperature. ADP-Glo™ reagent was then added for 40 minutes, followed by kinase detection reagent for an additional 40 minutes. The kinase activity was evaluated by detecting relative light units on a luminescence plate reader. Samples were run in duplicate from 10 μM to 3 nM. […] IC50 values were calculated from concentration vs % inhibition curves by fitting to a four-parameter logistic curve.
as §1, with “The” for “PIKfyve Biochemical Assay. The”, “accession number” for “the protein having the sequence set forth in NCBI Reference Sequence No.”, “uM” for “μM”
Regarding `Fc1ccccc1-c1ccn(-c2nc(N3CCOCC3)c3ncc(C4CCOCC4)cc3n2)n1` [Compound 19, 4-[2-[3-(2-fluorophenyl)pyrazol-1-yl]-7-tetrahydropyran-4-yl-pyrido[3,2-d]pyrimidin-4-yl]morpholine], the IC50 is 100 to 1000 nM.
In the case of `c1ccc(-c2cn(-c3nc(N4CCOCC4)c4ncccc4n3)nn2)cc1` [Compound 74, 4-(2-(4-phenyl-1H-1,2,3-triazol-1-yl)pyrido[3,2-d]pyrimidin-4-yl)morpholine] it was 100 to 1000 nM; in that of `COc1cccc(-c2cnn(-c3nc(N4CCOCC4)c4ncc(CO)cc4n3)c2)c1` [Compound 45, (2-(4-(3-methoxyphenyl)-1H-pyrazol-1-yl)-4-morpholinopyrido[3,2-d]pyrimidin-7-yl)methanol], less than 10 nM; in that of `Clc1nc(N2CCOCC2)c2ncc(Cc3cccnc3)cc2n1` [Compound 128, 4-(2-chloro-7-(pyridin-3-ylmethyl)pyrido[3,2-d]pyrimidin-4-yl)morpholine], more than 10000 nM.
The figure for `Fc1cccc(-c2ccn(-c3nc(N4CCOCC4)c4ncc(C5CCOCC5)cc4n3)n2)c1` [Compound 22, 4-[2-[3-(3-fluorophenyl)pyrazol-1-yl]-7-tetrahydropyran-4-yl-pyrido[3,2-d]pyrimidin-4-yl]morpholine] is 10 to 100 nM; for `Cc1cccc(/C=N/Oc2nc(N3CCOCC3)c3ncccc3n2)c1` [Compound 116, (E)-3-methylbenzaldehyde O-(4-morpholinopyrido[3,2-d]pyrimidin-2-yl) oxime] it is 10 to 100 nM; for `c1ccc(-c2ccn(-c3nc(N4CCOCC4)c4ncc(N5CCOCC5)cc4n3)n2)cc1` [Compound 41, 4-[4-morpholino-2-(3-phenylpyrazol-1-yl)pyrido[3,2-d]pyrimidin-7-yl]morpholine] it is 10 to 100 nM.
The figure for `c1cnc2c(N3CCOCC3)nc(-n3ccc(-c4ccncc4)n3)nc2c1` [Compound 14, 4-(2-(3-(pyridin-4-yl)-1H-pyrazol-1-yl)pyrido[3,2-d]pyrimidin-4-yl)morpholine] is 1000 to 10000 nM.
For the molecule `Oc1cnc(-c2ccccc2)nc1-c1nc(N2CCOCC2)c2ncccc2n1` [Compound 94, 4-(4-morpholinopyrido[3,2-d]pyrimidin-2-yl)-2-phenylpyrimidin-5-ol], the IC50 lay within 10 to 100 nM.
In the case of `Oc1cccc(-c2cnn(-c3nc(N4CCOCC4)c4ncccc4n3)c2)c1` [Compound 46, 3-(1-(4-morpholinopyrido[3,2-d]pyrimidin-2-yl)-1H-pyrazol-4-yl)phenol] it was less than 10 nM; in that of `Oc1cccc(-c2nccc(-c3nc(N4CCOCC4)c4ncccc4n3)n2)c1` [Compound 101, 3-(4-(4-morpholinopyrido[3,2-d]pyrimidin-2-yl)pyrimidin-2-yl)phenol], 100 to 1000 nM; in that of `Fc1ccc(-c2ccn(-c3nc(N4CCOCC4)c4ncc(C5CCOCC5)cc4n3)n2)cc1` [Compound 20, 4-[2-[3-(4-fluorophenyl)pyrazol-1-yl]-7-tetrahydropyran-4-yl-pyrido[3,2-d]pyrimidin-4-yl]morpholine], 10 to 100 nM.
The figure for `CC(C)(C)OC(=O)N1CCC=C(c2ccn(-c3nc(N4CCOCC4)c4ncccc4n3)n2)C1` [Compound 5, tert-butyl 3-(1-(4-morpholinopyrido[3,2-d]pyrimidin-2-yl)-1H-pyrazol-3-yl)-5,6-dihydropyridine-1(2H)-carboxylate] is more than 10000 nM; for `Cc1cccc(-c2ncc(O)c(-c3nc(N4CCOCC4)c4ncccc4n3)n2)c1` [Compound 103, 4-(4-morpholinopyrido[3,2-d]pyrimidin-2-yl)-2-m-tolylpyrimidin-5-ol] it is 10 to 100 nM.
In the case of `c1cncc(-c2ccn(-c3nc(N4CCOCC4)c4ncc(C5CCOCC5)cc4n3)n2)c1` [Compound 52, 4-[2-[3-(3-pyridyl)pyrazol-1-yl]-7-tetrahydropyran-4-yl-pyrido[3,2-d]pyrimidin-4-yl]morpholine] it was 1000 to 10000 nM; in that of `c1cc(-c2nc(N3CCOCC3)c3ncccc3n2)nc(C2CCNCC2)c1` [Compound 92, 4-[2-[6-(4-piperidyl)-2-pyridyl]pyrido[3,2-d]pyrimidin-4-yl]morpholine], 1000 to 10000 nM; in that of `c1ccc(-c2cnn(-c3nc(N4CCOCC4)c4ncc(N5CCOCC5)cc4n3)c2)cc1` [Compound 40, 4,4′-(2-(4-phenyl-1H-pyrazol-1-yl)pyrido[3,2-d]pyrimidine-4,7-diyl)dimorpholine], less than 10 nM.
In the case of `c1ccc(-c2nccc(-c3nc(N4CCOCC4)c4ncccc4n3)n2)cc1` [Compound 90, 4-(2-(2-phenylpyrimidin-4-yl)pyrido[3,2-d]pyrimidin-4-yl)morpholine], the IC50 lay within 10 to 100 nM.
The figure for `c1cc(-c2ccn(-c3nc(N4CCOCC4)c4ncc(C5CCOCC5)cc4n3)n2)ccn1` [Compound 51, 4-[2-[3-(4-pyridyl)pyrazol-1-yl]-7-tetrahydropyran-4-yl-pyrido[3,2-d]pyrimidin-4-yl]morpholine] is 1000 to 10000 nM; for `COc1cccc(-c2nccc(-c3nc(N4CCOCC4)c4ncccc4n3)n2)c1` [Compound 100, 4-(2-(2-(3-methoxyphenyl)pyrimidin-4-yl)pyrido[3,2-d]pyrimidin-4-yl)morpholine] it is 100 to 1000 nM; for `c1cncc(-c2ccn(-c3nc(N4CCOCC4)c4ncc(-c5ccc6c(c5)OCCO6)cc4n3)n2)c1` [Compound 49, 4-(7-(2,3-dihydrobenzo[b][1,4]dioxin-6-yl)-2-(3-(pyridin-3-yl)-1H-pyrazol-1-yl)pyrido[3,2-d]pyrimidin-4-yl)morpholine] it is 1000 to 10000 nM.
Consider `c1ncc(-c2ccn(-c3nc(N4CCOCC4)c4ncc(C5CCOCC5)cc4n3)n2)cn1` [Compound 50, 4-[2-(3-pyrimidin-5-ylpyrazol-1-yl)-7-tetrahydropyran-4-yl-pyrido[3,2-d]pyrimidin-4-yl]morpholine], for which the IC50 is more than 10000 nM.
Regarding `COc1ccc(-c2ccn(-c3nc(N4CCOCC4)c4ncc(C5=CCOCC5)cc4n3)n2)cc1` [Compound 29, 4-(7-(3,6-dihydro-2H-pyran-4-yl)-2-(3-(4-methoxyphenyl)-1H-pyrazol-1-yl)pyrido[3,2-d]pyrimidin-4-yl)morpholine], the IC50 was in the range of 100 to 1000 nM.
The figure for `COc1ccc(-c2ccn(-c3nc(N4CCOCC4)c4ncc(C5CCOCC5)cc4n3)n2)cc1` [Compound 30, 4-(2-(3-(4-methoxyphenyl)-1H-pyrazol-1-yl)-7-(tetrahydro-2H-pyran-4-yl)pyrido[3,2-d]pyrimidin-4-yl)morpholine] is 100 to 1000 nM; for `c1ccc(-c2ccn(-c3nc(N4CCOCC4)c4ncc(C5CCOCC5)cc4n3)n2)nc1` [Compound 21, 4-[2-[3-(2-pyridyl)pyrazol-1-yl]-7-tetrahydropyran-4-yl-pyrido[3,2-d]pyrimidin-4-yl]morpholine] it is 100 to 1000 nM.
As for `c1ccc(-c2nccc(-c3nc(N4CCOCC4)c4ncc(-c5ccncc5)cc4n3)n2)cc1` [Compound 104, 4-(2-(2-phenylpyrimidin-4-yl)-7-(pyridin-4-yl)pyrido[3,2-d]pyrimidin-4-yl)morpholine], the IC50 is less than 10 nM.
Turning to `c1cc(Oc2nc(N3CCOCC3)c3ncccc3n2)cc(-c2cn[nH]c2)c1` [Compound 47, 4-(2-(3-(1H-pyrazol-4-yl)phenoxy)pyrido[3,2-d]pyrimidin-4-yl)morpholine], the IC50 is more than 10000 nM.
For `c1cnc2c(N3CCOCC3)nc(-n3ccc(CC4CCNC4)n3)nc2c1` (stereo not shown) [Compound 64, 4-[2-[3-(pyrrolidin-3-ylmethyl)pyrazol-1-yl]pyrido[3,2-d]pyrimidin-4-yl]morpholine], the IC50 was in the range of 1000 to 10000 nM.
The figure for `c1ccc(-c2ccn(-c3nc(N4CCOCC4)c4ncc(C5CC5)cc4n3)n2)cc1` [Compound 55, 4-[7-cyclopropyl-2-(3-phenylpyrazol-1-yl)pyrido[3,2-d]pyrimidin-4-yl]morpholine] is 10 to 100 nM.
Turning to `COc1cnc(-c2ccccc2)nc1-c1nc(N2CCOCC2)c2ncccc2n1` [Compound 93, 4-(2-(5-methoxy-2-phenylpyrimidin-4-yl)pyrido[3,2-d]pyrimidin-4-yl)morpholine], the IC50 was in the range of 100 to 1000 nM.
In the case of `Brc1cnc2c(N3CCOCC3)nc(-n3ccc(-c4ccccc4)n3)nc2c1` [Compound 33, 4-(7-bromo-2-(3-phenyl-1H-pyrazol-1-yl)pyrido[3,2-d]pyrimidin-4-yl)morpholine] it was 100 to 1000 nM.

In general, IC50 refers to the concentration that gives 50% inhibition.
